Drawing on publication PMC9570478, “Purification, Biochemical and Kinetic Characterization of a Novel Alkaline sn-1,3-Regioselective Triacylglycerol Lipase from Penicillium crustosum Thom Strain P22 Isolated from Moroccan Olive Mill Wastewater” (International Journal of Molecular Sciences, 2022), this text covers pH-Stat titration for 1 compound.

In assay [1] the target is T1, Lipolase (Thermomyces lanuginosus, UniProt O59952).
T1 construct: gene LIP; commercial enzyme preparation (Novozymes)
T1 sequence (O59952 23-291): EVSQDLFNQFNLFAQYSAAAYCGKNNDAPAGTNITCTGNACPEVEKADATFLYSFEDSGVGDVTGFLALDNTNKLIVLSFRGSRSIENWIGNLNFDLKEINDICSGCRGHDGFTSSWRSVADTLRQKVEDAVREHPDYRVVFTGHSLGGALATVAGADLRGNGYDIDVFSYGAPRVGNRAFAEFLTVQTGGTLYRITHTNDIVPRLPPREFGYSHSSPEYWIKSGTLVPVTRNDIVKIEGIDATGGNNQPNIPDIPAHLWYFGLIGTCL
The experiment in a line: pH-Stat titration. As to conditions: commercial preparation; TC8 emulsion. It counts as biochemical.

The target of assay [2] is T2, Palatase 20000 L (Rhizomucor miehei, UniProt P19515).
T2 construct: commercial enzyme preparation (Novozymes)
T2 sequence (P19515 95-363): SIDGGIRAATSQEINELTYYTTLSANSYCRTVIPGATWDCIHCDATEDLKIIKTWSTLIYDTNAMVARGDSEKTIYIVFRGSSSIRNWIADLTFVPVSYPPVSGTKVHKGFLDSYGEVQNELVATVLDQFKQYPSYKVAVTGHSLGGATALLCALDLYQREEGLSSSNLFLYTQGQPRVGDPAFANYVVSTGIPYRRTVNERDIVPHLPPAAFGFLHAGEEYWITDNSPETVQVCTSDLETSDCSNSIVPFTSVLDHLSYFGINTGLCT
The experiment in a line: pH-Stat titration. In kind it is biochemical. The note with it: commercial preparation; TC8 emulsion.

Turning to `CCCCCCCC(=O)OCC(COC(=O)CCCCCCC)OC(=O)CCCCCCC` [TC8], the pH-Stat titration result in assay [1] and in assay [2] was “almost the same substrate specificity profile as PCrL under the same experimental conditions” in each case.
